According to patent US20260232610A1 (priority 2023, published 2026):
Like-named read-outs stand apart in the source and are kept apart here.

How the values were obtained:
[1] = test system: Eimeria (overall coccidiosis lesions); experiment: Overall coccidiosis lesions (TMLS); assay type: in vivo, male Ross 308 broilers
[2] = compared to some amino acids such as glycine or arginine; cited from earlier work
E. maxima = experiment: Coccidiosis lesion scoring (Johnson and Reid, 0-4); assay type: in vivo, male Ross 308 broilers; conditions: score 0 (no lesions) to 4 (severe lesions)
[3] = test system: necrotic enteritis (Clostridium perfringens inoculations); assay type: in vivo, male Ross 308 broilers; conditions: for NE score: four chickens per pen
[4] = test system: experimentally induced NE (Eimeria spp. and Clostridium perfringens challenge); assay type: in vivo, male Ross 308 broilers
E. acervulina = experiment: Coccidiosis lesion scoring (Johnson and Reid, 0-4); assay type: in vivo, male Ross 308 broilers; conditions: score 0 (no lesions) to 4 (severe lesions)
[5] = day 16 to day 22, challenge period

N=C(N)NCC(=O)O [GAA, guanidinoacetic acid]
E. maxima and coccidiosis lesions compared with untreated control ([1]; day 21): lower amounts
TMLS (overall coccidiosis lesions) ([1]; day 21): 0.60
TMLS (overall coccidiosis lesions) ([1]; day 22): 0.94
Solubility in water [2]: rather low solubility in water
E. maxima (lesion score) (E. maxima; day 21): 0.52
E. maxima (lesion score) (E. maxima; day 22): 0.88
NE percentage (percentage of NE affected birds) ([3]; day 21): 85
NE score ([3]; day 21): 3.52
NE percentage (percentage of NE affected birds) ([3]; day 22): 73
NE scores and percentage of NE affected birds compared with untreated control ([3]; day 22): lower NE scores and a lower percentage of NE affected birds
NE score ([3]; day 22): 2.33
Effect on daily feed intake (DFI) over untreated birds ([4]; any period (p>0.05) except a small effect in the pre-challenge period): no significant effect
FCR compared with untreated birds ([4]; challenge period and overall): significantly lower
Daily weight gain (DWG) compared with IUC birds ([4]; challenge period from day 16 to d22): significantly higher
BW_D0 (body weight) ([4]; day 0, before challenge, treatment mean): 46
DFI_D0-D16 (daily feed intake) ([4]; day 0 to day 16, pre-challenge): 45.9
DWG_D0-D16 (daily weight gain) ([4]; day 0 to day 16, pre-challenge): 41.0
FCR_D0-D16 (feed conversion ratio) ([4]; day 0 to day 16, pre-challenge): 1.12
DFI_D0-D42 (daily feed intake) ([4]; day 0 to day 42, overall): 112.1
DWG_D0-D42 (daily weight gain) ([4]; day 0 to day 42, overall): 62.6
FCR_D0-42 (feed conversion ratio) ([4]; day 0 to day 42, overall): 1.80
BW_D16 (body weight) ([4]; day 16, treatment mean): 711
DFI_D16-D22 (daily feed intake) [4, 5]: 84.4
DWG_D16-D22 (daily weight gain) [4, 5]: 72.2
FCR_D16-D22 (feed conversion ratio) [4, 5]: 1.18
BW_D22 (body weight) ([4]; day 22, after NE challenge, treatment mean): 1161
DFI_D22-D34 (daily feed intake) ([4]; day 22 to day 34): 117.3
DWG_D22-D34 (daily weight gain) ([4]; day 22 to day 34): 75.3
FCR_D22-D34 (feed conversion ratio) ([4]; day 22 to day 34): 1.56
BW_D34 (body weight) ([4]; day 34, treatment mean): 2463
DFI_D34-D42 (daily feed intake) ([4]; day 34 to day 42): 191.0
DWG_D34-D42 (daily weight gain) ([4]; day 34 to day 42): 108.7
FCR_D34-D42 (feed conversion ratio) ([4]; day 34 to day 42): 1.77
BW_D42 (body weight) ([4]; day 42, treatment mean): 3332
Weight gained more than the negative control ([4]; grower phase): approximately 9 g/day
Weight gained more than the negative control ([4]; overall): approximately 2 g/day
Percentage of NE related mortalities ([4]; overall, on par with antibiotics treated control): strongly reduced
NE related mortality ([4]; percentage of NE related mortalities, overall): 3.33
E. acervulina (lesion score) (E. acervulina; day 21): 0.08
E. acervuline (lesion score) (E. acervulina; day 22): 0.06
